# Test results: US12422427B2, “Compounds for treatment of diseases and methods of screening therefor” (Max-Planck-Gesellschaft zur Förderung der Wissenschaften …, priority 2018, dated 2025)
# Assays:
# HeLa cells = assay: 15N lipoamide uptake by HeLa cells measured by NMR; format: in vitro ADME; details: for uptake of the lipoamide present in the medium: 100 μM, 1 h, 37° C., stressed or unstressed HeLa cells
# Description: The concentration of lipoamide relative to protein required for an effect on condensate liquidity in vitro was higher than the EC50 on cells, on the order of 100 μM lipoamide with 1 μM FUS (FIGS. 1D-1E, FIGS. 5A-5E). In cells, FUS concentrations are high for a protein (low μM)^41 and the cellular EC50 was on the order of 10 μM (FIG. 2A, FIG. 3D). We also saw inverse effects of lipoamide on FUS-containing condensates in vitro (more, larger condensates) and in cells (fewer stress granules). To reconcile this difference and to understand the relevance of the effects in vitro in cells, we wanted to know the actual concentrations of compounds in cells. In principle, isotopic labelling allows direct monitoring of isotopically-labelled compounds even in complex environment through appropriate spectroscopy. To use this approach, ^15N-labelled lipoamide (FIG. 7A) was synthesised.
# Uptake of ^15N lipoamide by cells from the medium was quantified by NMR following incubation of lipoamide at 37° C. for 1 h either in the absence or presence of HeLa cells (FIG. 7B). Cellular uptake was determined by calculating the difference between medium incubated with cells or without cells for combinations of either R-(+) or (±)-lipoamide and either unstressed or stressed cells (FIG. 7C). For one sample, stressed cells with R-(+)-lipoamide, we confirmed that strong signal from the cell fraction was consistent with uptake of a large proportion of lipoamide (FIG. 7C). Both R-(+) and ±-lipoamide measurements indicated uptake of 35±11% (n=3 and 2, respectively) of the lipoamide present in the medium. No significant difference was observed either for uptake of R-(+) compared to (±)-lipoamide or stressed compared to unstressed cells (FIG. 7D).
# For analysis of ^15N lipoamide uptake by cells HeLa cells expressing FUS GFP were grown in 6 well plates to 10^6 cells/well in DMEM supplemented with 10% FCS. To simultaneously stress and treat cells, the medium was replaced with 0.6 ml medium supplemented with potassium arsenate and 100 μM ^15N racemic or R-(+)-lipoamide for 1 h at 37° C. High concentrations of compound were used to maximise the signal. […] Wells were prepared for all combinations of no compound (1% DMSO control), ^15N […] or ^15N R-(+)-lipoamide, with or without potassium arsenate and with or without cells. ^1H detected ^15N edited ^1H sensitivity enhanced HSQ was used to quantify ^15N lipoamide concentration (see Supplementary Information). Solvent, pH and temperature sensitivity of the primary amide proton chemical shifts were determined using dummy samples assembled from the appropriate solvent and added compounds.
# ^1H detected ^15N edited ^1H sensitivity enhanced HSQC NMR (referred to here as (^15N) ^1H) spectra were acquired on a narrow bore Varian solution state spectrometer operating with a fixed field strength of 14.1 T, equipped with a room-temperature probe.
# The free induction decay was recorded for an acquisition time of 0.0624 and a sweep with of 8 kHz recorded over 1000 and a recovery delays of 1 s. […] The J coupling between the amide protons and the ^15N in H2O samples was determined to be 96 Hz, and so the transfer times of 1/4 J in the INEPT portions of the pulse sequence were set to 2.6 ms. […]
# [1] = system: HeLa cells expressing FUS GFP; assay: HeLa cell compound dose responses (FUS GFP, arsenate stress); format: cell-based
# Description: Small dilution steps rather than concentration replicates were selected as it provides greater statistical power from a set number of samples. Final DMSO concentration was 0.08% in all samples, and each plate included at least 12 control wells with 0.08% DMSO. Cytoplasmic FUS droplet number and nuclear/cytoplasm partition of FUS were analysed using custom macros in ImageJ. Nuclei were identified by intensity thresholding of the blue fluorescence image following a 5 px Gaussian blur. Cytoplasmic FUS droplets by intensity thresholding of the green image following a 10 px weight 0.9 unsharp filter masked by the thresholded nuclei, and nuclear FUS droplets by intensity thresholding of the green image following a 5 px weight 0.9 unsharp filter and 10 px rolling ball background subtraction masked to only include thresholded nuclei. The ratio of cytoplasmic FUS drops to nuclei was taken as cytoplasmic FUS droplets per cell per field of view, and p, the ratio of partition of FUS to the nucleus and the cytoplasm, was derived from a=Vn/vt, the ratio of nuclear to total green signal per field of view, where p=a/(1−a). […] Six fields of view were captured and analysed per condition.
# [2] = system: FUS GFP localisation in stressed HeLa cells; assay: Ex vivo HeLa cell screen of FUS GFP localisation under arsenate stress; format: cell-based; details: 10 μM compound 1 h pre-treatment, then 1 h 1 mM potassium arsenate
# Text: The inventors developed a cell-based screen using a HeLa cell line that stably expresses GFP-tagged FUS at near-endogenous levels. While not required for stress granule formation, FUS is a well-characterised protein with a domain structure typical of stress granule proteins. In the absence of cellular stress, FUS-GFP primarily localizes to the nucleus, where it is partially excluded from the nucleolus and localises to small puncta called paraspeckles (FIG. 1A). These are nuclear droplets implicated in retaining RNA in the nucleus for rapid stress response. Cells were pre-treated with 10 μM compound from a compound library for 1 h, then the cells were stressed with 1 mM potassium arsenate (still in the presence of compound) (FIG. 1B) and monitored FUS localization to stress granules. Arsenate disrupts antioxidant responses by reacting with thiol groups, blocks the tricarboxylic acid (TCA) cycle by reacting with the thiols in vital lipoyl moieties and causes general oxidative damage. In untreated stressed cells, FUS is partly exported to the cytoplasm where, in combination with other proteins and mRNA, it phase separates to form liquid-like stress granules surrounded by cytoplasm depleted in FUS (FIG. 1A).
# Many compounds affected stress granule formation. Multi-parameter image analysis, including cytoplasmic puncta number, nuclear puncta number, and nuclear/cytoplasm partition, was used to rank compounds by strength of effect on FUS localisation in stressed cells (FIG. 1C). […] These were the polysome stabilising compound emetine, which prevents release of mRNA, and the heavy metal chelating compound dimercaprol (which should sequester the stressor). Edaravone, thought to be an antioxidant and used as an ALS therapeutic in Japan and the US, had no effect on FUS localization in arsenate-stressed cells.
# The effect of compounds on FUS GFP localisation in stressed HeLa cells was screened in 384 well format. 4000 cells were seeded per well and incubated for 24 h, after which the medium was replaced with 40 μl fresh medium and compound added to a final concentration of 10 μM by acoustic dispensing (Labcyte Echo 550). The final concentration of DMSO in all samples was 0.1%. […]
# For the initial screen FUS GFP signal was analysed using KNIME. […] Particle number and sum area, granularity at 9, 10 & 11 px (cytoplasm) or 1, 5, 6, 7, 8 & 9 px (nucleus) scale, texture at 10 px scale and integrated signal intensity were measured for the nucleus and cytoplasm in the green (FUS GFP) channel. Z scores (z=(x−μ)/σ where x is the observed value, μ the control mean and σ the control standard deviation) relative to the DMSO treated control wells on each plate were calculated for each of the parameters, and combined into the Mahalanobis distance.
structure (smiles),measurement,setting,value
"[15NH2]C(=O)CCCCC1CCSS1 (racemic) [±-lipoamide, ^15N (±)-Lipoamide]",uptake of the lipoamide present in the medium,HeLa cells,35±11%
"O=C(O)CCCCC(S)CCS (racemic) [(±)-dihydrolipoic acid, 6,8-dimercaptooctanoic acid]","EC50 reducing stress granule number, compared among compounds",[1]; 1 h 1 mM arsenate stress,comparable EC50
OCC(S)CS (stereo not drawn) [dimercaprol],effect on stress granules / FUS localisation in stressed cells,[2],reduction of stress granules
CC1=NN(c2ccccc2)C(=O)C1 [Edaravone],effect on stress granules / FUS localisation in stressed cells,[2],no effect
"SCCCS [1,3-propanedithol, 1,3-propanedithiol, reference compound]",effect on stress granule number,[1]; up to 100 μM,no effect
CC[C@H]1CN2CCc3cc(OC)c(OC)cc3[C@@H]2C[C@@H]1C[C@H]1NCCc2cc(OC)c(OC)cc21 [emetine],effect on stress granules / FUS localisation in stressed cells,[2],reduction of stress granules
CC1=CC(=O)c2ccccc2C1=O [menadione],effect on stress granules / FUS localisation in stressed cells,[2],did not reduce stress granule number
"[15NH2]C(=O)CCCC[C@@H]1CCSS1 [R-(+)-lipoamide, ^15N R-(+)-Lipoamide]",uptake of the lipoamide present in the medium,HeLa cells,35±11%
NC(=O)CCCCC1CCSS1 (stereo not drawn) [^15N lipoamide],average intracellular concentration,"HeLa cells; calculated from percentage uptake, number of cells and their volume",5.0 ± 1.6 mM
